From patent US4820824A, “Mitomaycin compounds” (Kyowa Hakko Kogyo Kabushiki Kaisha, priority 1986, dated 1989)
In brackets after ≈: the same amount, converted by molar mass. Where two headings read alike, the source gives them in different places.

Legend:
[1] = tested on: Staphylococcus aureus ATCC6538P; test: Antibacterial activity, agar dilution method (MIC), Staphylococcus aureus; assay type: cell-based; conditions: pH 7.0, read-out: Minimum inhibitory concentration (MIC), SA
Method: (§1) Antibacterial activities of Compounds (I) against various microorganisms are shown in the following Table 5, in which the minimum inhibitory concentration MIC (μg/ml) was measured by the agar dilution method at a pH of 7.0.
(§2) In this table, the following abbreviations are used: SF-Streptococcus faecalis ATCC 10541; SA-Staphylococcus aureus ATCC6538P; BS-Bacillus subtilis 10707; PV-Proteus vulgaris ATCC6897; KP-Klebsiella pneumoniae ATCC10031.

[2] = tested on: Proteus vulgaris ATCC6897; test: Antibacterial activity, agar dilution method (MIC), Proteus vulgaris; assay type: cell-based; conditions: pH 7.0, read-out: Minimum inhibitory concentration (MIC), PV
Method: as §1, §2

[3] = tested on: Bacillus subtilis 10707; test: Antibacterial activity, agar dilution method (MIC), Bacillus subtilis; assay type: cell-based; conditions: pH 7.0, read-out: Minimum inhibitory concentration (MIC), BS
Method: as §1, §2

[4] = tested on: Klebsiella pneumoniae ATCC10031; test: Antibacterial activity, agar dilution method (MIC), Klebsiella pneumoniae; assay type: cell-based; conditions: pH 7.0, read-out: Minimum inhibitory concentration (MIC), KP
Method: as §1, §2

[5] = tested on: Streptococcus faecalis ATCC 10541; test: Antibacterial activity, agar dilution method (MIC), Streptococcus faecalis; assay type: cell-based; conditions: Enterococcus faecalis, ATCC10541, pH 7.0, read-out: Minimum inhibitory concentration (MIC), SF
Method: as §1, §2

[6] = Acute toxicity; conditions: mouse, in vivo, ip; ddy mice, single abdominal administration, 14 days observation, Behrens-Korber's method
Excerpt: (§3) Certain Compounds (I) and Sarcoma 180 solid tumour were used to determine, on each occasion, antitumour activity (ED50), acutee toxicity (LD50) and effect upon peripherical leucocytes (WBC4000), as shown Table 6.
The test compound was abdominally administered once to ddy mice, each group consisting of 5 animals.

[7] = tested on: peripheral leucocytes; test: Effect upon peripheral leucocytes (bone marrow toxicity); assay type: in vivo, male mice (ddy strain); conditions: minimum dose decreasing peripheral leucocytes to 4000/mm^3; tumour-bearing ddy mice, intraperitoneal, blood 4 days later
Method: as §3
of peripheral leucocytes to 4000/mm^3.
Sarcoma 180 solid tumour cells (5×10^6) were subcutaneously implanted under the skin of the right armpit of each mouse (body weight 20±2 g) of a group consisting of 5 male mice (ddy strain). 24 hours after this, a test compound was intraperitoneally administered to each animal. 4 days later, blood (0.02 ml) was collected from the suborbital plexus vein of each tumour-carrying animal. The collected sample of blood was dispersed in 9.98 ml of Cellkit Seven solution. One drop of saponin solution was added to the sample to dissolve erythrocytes and then a microcell counter was used to measure the number of leucocytes. On graph paper, the number of leucocytes was plotted on the ordinate using an arithmetic scale, and the dosage was plotted on the abscissa using a logarithmic scale to show the relationship of the dosage to the number of peripherical leucocytes, from which the value of WBC4000 viz. a value capable of giving 4000 peripheral leucocytes per mm^3 (about half of the corresponding value in normal mice) was obtained.

[8] = tested on: Sarcoma 180 solid tumour; test: Antitumour activity against Sarcoma 180 solid tumour; assay type: in vivo, ddy male mouse; conditions: for ED50: Mus musculus, Sarcoma-180, iv, 168 h; for C.I. (LD50/ED50): chemotherapeutic index LD50/ED50, Sarcoma 180, ddy mice
Excerpt: as §3
5×10^6 cells of Sarcoma 180 solid tumour were abdominally implanted into a ddy mouce. 7 days after this, the cells were collected from the ascites fluid. The cells were washed once with physiological saline under sterile conditions and suspended in physiological saline to obtain a cell suspension containing 5×10^7 cells/ml, of which 0.1 ml was implanted into a ddy male mouce (body weight 20±2 g) under the skin of the right armpit. The test compound was dissolved in physiological saline or the same solution containing Tween 80. 24 hours after implantation of the tumour cells, 0.1-0.2 ml of the solution containing the test compound was administered to the tail vein of each animal in the test group consisting of 5 animals. 7 days after the implantation, the major axis (a) and minor axis (b) of the tumour were measured to calculate the volume of the tumour as ("a"×"b^2 ")/2. The antitumour effect was indicated by T/C which is the ratio of the tumour volume in the test animals to the corresponding volume of the control (untreated) animals.
ED50 denotes the dosage capable of decreasing the volume of Sarcoma 180 solid tumour to 50% of the corresponding volume of the control animals. T/C ratios and the dose were respectively plotted on the ordinate using an arithmetic scale and on the abscissa using a logarithmic scale, the relationship between the dosage and the T/C ratio being converted to a straight line by the least squares method. From the straight tropic line thus-obtained, the dosage corresponding to a T/C=0.5 viz. ED50 was determined.

[9] = Water-solubility; assay type: physicochemical
[10] = dose giving T/C=0.5 tumour volume, single tail vein administration 24 hours after implantation, measured 7 days after implantation, read-out: ED50

Structure (SMILES): CO[C@@]12[C@H](COC(N)=O)C3=C(C(=O)C(C)=C(N=S(c4ccccc4)c4ccccc4)C3=O)N1C[C@@H]1N[C@@H]12 [Compound 1, 7-demethoxy-7-diphenylsulfiliminomitomycin A]
- MIC [1]: 0.01 µg/mL (≈ 0.0193 µM)
- MIC [2]: 0.63 µg/mL (≈ 1.21 µM)
- MIC [3]: < 0.005 µg/mL
- MIC [4]: 0.16 µg/mL (≈ 0.309 µM)
- MIC [5]: 0.02 µg/mL (≈ 0.0386 µM)

Structure (SMILES): CC1=C(N=S(c2ccccc2)c2ccccc2)C(=O)C2=C(C1=O)N1C[C@H]3[C@H](N3C)[C@]1(O)[C@H]2COC(N)=O (stereo partly shown) [Compound 2]
- LD50 at 336 h [6]: > 200 mg/kg
- MIC [1]: 0.78 µg/mL (≈ 1.5 µM)
- WBC4000 [7]: > 200 mg/kg
- MIC [3]: 0.2 µg/mL (≈ 0.386 µM)
- MIC [4]: 25 µg/mL (≈ 48.2 µM)
- ED50 [8, 10]: 89.1 mg/kg
- C.I. (LD50/ED50) [8]: > 2.2
- MIC [5]: 0.78 µg/mL (≈ 1.5 µM)

Structure (SMILES): C=C1C2=C(C(=O)C(C)=C(N=S(c3ccccc3)c3ccccc3)C2=O)N2C[C@H]3[C@H](N3C)[C@]12O (stereo partly shown) [Compound 3]
- LD50 at 336 h [6]: > 200 mg/kg
- WBC4000 [7]: > 200 mg/kg
- MIC [3]: 0.63 µg/mL (≈ 1.38 µM)
- ED50 [8, 10]: 132 mg/kg
- C.I. (LD50/ED50) [8]: > 1.5

Structure (SMILES): CO[C@@]12[C@H](COC(N)=O)C3=C(C(=O)C(C)=C(N=S(C)c4ccccc4)C3=O)N1C[C@@H]1N[C@@H]12 (stereo partly shown) [Compound 5, (E)-7-demethoxy-7-methylphenylsulfilimino mitomycin A]
- LD50 at 336 h [6]: 15 mg/kg
- WBC4000 [7]: 4.1 mg/kg
- ED50 [8, 10]: 2.7 mg/kg
- C.I. (LD50/ED50) [8]: 5.6

Structure (SMILES): CCS(CC)=NC1=C(C)C(=O)C2=C(C1=O)[C@@H](COC(N)=O)[C@@]1(OC)[C@H]3N[C@H]3CN21 [Compound 6]
- solubility [9]: > 40 mg/mL
- LD50 at 336 h [6]: 9.4 mg/kg
- MIC [1]: 0.039 µg/mL (≈ 0.0923 µM)
- WBC4000 [7]: 5.6 mg/kg
- MIC [2]: 0.039 µg/mL (≈ 0.0923 µM)
- MIC [3]: 0.02 µg/mL (≈ 0.0473 µM)
- MIC [4]: 0.039 µg/mL (≈ 0.0923 µM)
- ED50 [8, 10]: 2.5 mg/kg
- C.I. (LD50/ED50) [8]: 3.8
- MIC [5]: 0.078 µg/mL (≈ 0.185 µM)

Structure (SMILES): CCS(CC)=NC1=C(C)C(=O)C2=C(C1=O)[C@H](COC(N)=O)[C@@]1(O)[C@@H]3[C@H](CN21)N3C (stereo partly shown) [Compound 7]
- MIC [1]: 10 µg/mL (≈ 23.7 µM)
- MIC [2]: 20 µg/mL (≈ 47.3 µM)
- MIC [3]: 5 µg/mL (≈ 11.8 µM)
- MIC [4]: 10 µg/mL (≈ 23.7 µM)
- MIC [5]: 20 µg/mL (≈ 47.3 µM)

Structure (SMILES): CO[C@@]12[C@H](COC(N)=O)C3=C(C(=O)C(C)=C(N=P(c4ccccc4)(c4ccccc4)c4ccccc4)C3=O)N1C[C@@H]1N[C@@H]12 [Compound 9, 7-demethoxy-7-triphenylphosphiniminomitomycin A]
- LD50 at 336 h [6]: > 100 mg/kg
- MIC [1]: 13 µg/mL (≈ 21.9 µM)
- WBC4000 [7]: > 100 mg/kg
- MIC [2]: 25 µg/mL (≈ 42 µM)
- MIC [3]: 3.1 µg/mL (≈ 5.21 µM)
- MIC [4]: 13 µg/mL (≈ 21.9 µM)
- ED50 [8]: 100 mg/kg
- C.I. (LD50/ED50) [8]: ≥ 1.0
- MIC [5]: 13 µg/mL (≈ 21.9 µM)
